Laboratory results as given in patent US11911396B2, “Use of compound in preparation of drug for treating cerebral small vessel disease” (GUANGZHOU CELLPROTEK PHARMACEUTICAL CO., LTD, priority 2017, dated 2024).

Columns and labels:
[1] = tested on: Iba-1; assay: Iba-1 immunohistochemical staining of prefrontal cortex brain tissue, acute hypobaric hypoxia model; type: in vivo, cynomolgus monkeys
Source text: FIG. 2. Activation of microglia in the brain tissue of the prefrontal cortex of cynomolgus monkeys. A. Iba-1 immunohistochemical staining of the brain tissue of the prefrontal cortex of cynomolgus monkeys, Iba-1 serves as a marker for microglia activation. The black scale bar is 25 μm and the red scale bar is 200 μm. B. Statistics of Iba-1 relative optical density values. Image pro plus software was used to perform optical density scanning on the immunohistochemical images of each group to obtain the optical density values, which were then normalized with the NN group. NN: Normobaric Normoxia group (n=4); HH: Hypobaric Hypoxia group (n=4); HH+Triol: Hypobaric Hypoxia with Triol administration group (n=3); HH+PROG: Hypobaric Hypoxia with control drug administration group (n=4). […]
The experiment was carried out according to routine immunohistochemical procedures, as follows: the thickness of paraffin sections of prefrontal cortex tissue of cynomolgus monkeys was 5 μm, and fresh paraffin sections were baked overnight at 37° C. […] Imaging: Nikon ECLIPSE Ti-U inverted fluorescence microscope was used to take pictures of the sections in the bright field, by adjusting the appropriate exposure intensity and background white balance, and fixing the shooting adjustments to take pictures of each group of slices from multiple views and by multiples folds. […]

[2] = tested on: CD11b in microglia BV2; assay: Western blot of CD11b in BV2 cells stimulated with hemoglobin and hypoxia, with or without CD163 RNA interference; type: cell-based; settings: 10 μM Triol, 20 μM hemoglobin and 1% hypoxia for 6 hours
Protocol: FIG. 7. […] According to the manufacturer's instructions, RNAiMAX was used to transfect CD163 No. 01 and scrambled interference fragment NC respectively to BV2 cells, BV2 cell culture medium was then added with or without 10 μM Triol, and BV2 cells were stimulated with 20 μM hemoglobin and 1% hypoxia for 6 hours, after which protein samples were collected, and the expression of microglial activation markers Iba-1 and CD11b was detected by Western blot.
1) Preparation of protein samples (see the instructions of M-PER protein lysate): After the cells had been processed for the specified time, the medium was aspirated and then washed with 4° C. pre-chilled PBS (0.01M pH7.2˜7.3) for 3 times. 150-200 ul of M-PER protein lysate mixed with protease inhibitor (PMSF 100×) was added, which was lysed on ice for 10 minutes to fully lyse the cells. […] 2) BCA protein quantification (see the instructions of BCA protein quantification kit): corresponding components were added to a 96-well detection plate by the ratio of quantification reagent A solution:B solution:ddH2O:protein=100:2:7.5:5, and albumin standards diluted in gradient concentration were added to draw a standard curve. […] After the reaction, the absorbance of each well at a wavelength of 562 nm was detected using a microplate reader. […]

C[C@@]12CCCC1C1C[C@@H](O)[C@@]3(O)C[C@@H](O)CC[C@]3(C)C1CC2 (stereo partly drawn) [Triol, 5α-androst-3β,5,6β-triol]
number of cells in the activation-like morphology (microglia) ([1]; FIG. 2): decreased
expression of Iba-1 ([1]; immunohistochemistry, FIG. 2B): decreased significantly
effect on the up-regulation of CD11b in hypoxia and hemoglobin-activated microglia cells ([2]; without CD163 interference): inhibitory effect
inhibitory effect on the up-regulation of CD11b after interfering CD163 ([2]; CD163 RNA interference, FIG. 7): cancelled
